The test system of one assay is ducksalad. Description: Test C flooded paddy test. It is filed as in vivo, Heteranthera limosa. The settings on record: Flood, applied to paddy water, rating after 13 to 15 d. The text has this: (§1) At time of treatment, test pots were flooded to 3 cm above the soil surface, treated by application of test compounds directly to the paddy water, and then maintained at that water depth for the duration of the test. Treated plants and controls were maintained in a greenhouse for 13 to 15 d, after which time all species were compared to controls and visually evaluated. […] A dash (-) response means no test result.

The next assay concerns barnyardgrass. Description: Test C flooded paddy test. It is filed as in vivo, Echinochloa crus-galli. Conditions: Flood, applied to paddy water, rating after 13 to 15 d.
Excerpt: as §1

Another assay deals with sedge, umbrella. Description: Test C flooded paddy test. It is filed as in vivo, Cyperus difformis. The settings on record: Flood, applied to paddy water, rating after 13 to 15 d.
Excerpt: as §1

The next assay concerns rice. The experiment in a line: Test C flooded paddy test. It is filed as in vivo, Oryza sativa. The settings on record: Flood, applied to paddy water, rating after 13 to 15 d.
Excerpt: as §1

Assay [1] relates to horseweed. Description: Test E postemergence. The class given is in vivo, Conyza canadensis. Conditions: scale 0 to 100. The source says: (§2) Seeds of plant species selected from corn (Zea mays), soybean (Glycine max), lambsquarters (Chenopodium album), poinsettia, wild (wild poinsettia, Euphorbia heterophylla), pigweed, palmer (palmer pigweed, Amaranthus palmeri), waterhemp (common waterhemp, Amaranthus rudis), surinam grass (Brachiaria decumbens), crabgrass, large (large crabgrass, Digitaria sanguinalis), crabgrass, Brazilian (Brazilian crabgrass, Digitaria horizontalis), panicum, fall (fall panicum, Panicum dichotomiflorum), foxtail, giant (giant foxtail, Setaria faberii), foxtail, green (green foxtail, Setaria viridis), goosegrass (Eleusine indica), johnsongrass (Sorghum halepense), ragweed (common ragweed, Ambrosia elatior), barnyardgrass (Echinochloa crus-galli), sandbur (southern sandbur, Cenchrus echinatus), arrowleaf sida (Sida rhombifolia), ryegrass, Italian (Italian ryegrass, Lolium multiflorum), dayflower, VA (Virginia dayflower, Commelina virginica), field bindweed (Convolvulus arvensis), cocklebur (common cocklebur, Xanthium strumarium), morningglory (Ipomoea coccinea), nightshade (eastern black nightshade, Solanum ptycanthum), kochia (Kochia scoparia), nutsedge, yellow (yellow nutsedge, Cyperus esculentus), smartweed (ladysthumb smartweed, Polygonum persicaria), velvetleaf (Abutilon theophrasti), horseweed (Conyza canadensis), and beggarticks (hairy beggarticks, Bidens pilosa), were planted into a silt loam soil and treated preemergence with test chemicals formulated in a non-phytotoxic solvent mixture which included a surfactant.
(§3) At the same time, plants from these crop and weed species and also waterhemp_RES1, (ALS & Triazine resistant common waterhemp, Amaranthus rudis), and waterhemp_RES2, (ALS & HPPD resistant common waterhemp, Amaranthus rudis) were planted in pots containing Sunshine Redi-Earth® planting medium comprising spaghnum peat moss, vermiculite, starter nutrients and dolomitic limestone were treated with postemergence applications of test chemicals formulated in the same manner. Plants ranged in height from 2 to 18 cm for postemergence treatments (1- to 4-leaf stage). Treated plants and controls were maintained in a greenhouse for 14 to 21 d, after which time all species were compared to controls and visually evaluated. Plant response ratings, summarized in Table E, are based on a scale of 0 to 100 where 0 is no effect and 100 is complete control. A dash (-) response means no test result.

Another assay concerns corn. Description: Test E postemergence. It is filed as in vivo, Zea mays. The settings on record: scale 0 to 100.
Excerpt: as §2, §3

A further assay concerns ryegrass, Italian. Description: Test E postemergence. The class given is in vivo, Lolium multiflorum. Conditions: scale 0 to 100.
Excerpt: as §2, §3

The subject of a further assay is field bindweed. The experiment in a line: Test E postemergence. It is filed as in vivo, Convolvulus arvensis. The settings on record: scale 0 to 100.
Excerpt: as §2, §3

In a further assay the test system is waterhemp. The experiment in a line: Test E preemergence. It is filed as in vivo, Amaranthus rudis. Conditions: scale 0 to 100.
Excerpt: as §2, §3

The test system of assay [2] is smartweed. Description: Test E preemergence. The class given is in vivo, Polygonum persicaria. Conditions: scale 0 to 100.
Excerpt: as §2, §3

The test system of the next assay is cocklebur. Description: Test E preemergence. It is filed as in vivo, Xanthium strumarium. Conditions: scale 0 to 100.
Excerpt: as §2, §3

In the next assay the test system is poinsettia, wild. Description: Test E postemergence. It is filed as in vivo, Euphorbia heterophylla. The settings on record: scale 0 to 100.
Excerpt: as §2, §3

Assay [3] relates to smartweed. Description: Test E postemergence. The class given is in vivo, Polygonum persicaria. The settings on record: scale 0 to 100. The procedure: […]
as §3, with “Plants ranged in height from 2 to 18 cm for postemergence treatments (1- to 4-leaf stage).” left out, “Plant response ratings, summarized in Table E, are based on a scale of 0 to 100 where 0 is no effect and 100 is complete control. A dash (-) response means no test result.” left out

The test system of assay [4] is horseweed. The experiment in a line: Test E preemergence. The settings on record: scale 0 to 100. The class given is in vivo, Conyza canadensis.
Excerpt: as §2, §3

Regarding `Cn1nc(-c2ccc(F)cc2)nc1Oc1cccc(C(F)(F)F)c1` [Compound 5, 3-(4-fluorophenyl)-1-methyl-5-[3-(trifluoromethyl)phenoxy]-1H-1,2,4-triazole], the “Ducksalad plant response rating (0 to 100)” value came to 20 in the assay with ducksalad (31 g ai/ha), 30 in the assay with ducksalad (62 g ai/ha), 40 with ducksalad (125 g ai/ha) and 60 in the assay with ducksalad (250 g ai/ha). Also, the “Barnyardgrass plant response rating (0 to 100)” value with barnyardgrass (31 g ai/ha) is reported as 10; in the assay with barnyardgrass (62 g ai/ha) it was 10; with barnyardgrass (125 g ai/ha) it was 15; in the assay on barnyardgrass (250 g ai/ha), 15. In addition, the “Sedge, Umbrella plant response rating (0 to 100)” value with sedge, umbrella (31 g ai/ha) is recorded as 0; in the assay on sedge, umbrella (62 g ai/ha), 0; with sedge, umbrella (125 g ai/ha), 20; with sedge, umbrella (250 g ai/ha), 40. In addition, the “Rice plant response rating (0 to 100)” value in the assay with rice (31 g ai/ha), in the assay on rice (62 g ai/ha), in the assay on rice (125 g ai/ha) and with rice (250 g ai/ha) was 0 in each case.
For `COc1nc(-c2ccc(Cl)cc2)nn1Cc1ccnc(C(F)(F)F)c1` [Compound 28], the Plant response rating amounted to 20 with horseweed [1] (31 g ai/ha); 20 with horseweed [1] (62 g ai/ha); 35 with horseweed [1] (125 g ai/ha); 40 in the assay on horseweed [1] (250 g ai/ha); 15 in the assay with corn (31 g ai/ha); 20 with corn (62 g ai/ha). Also, the Plant response rating in the assay with corn (125 g ai/ha) is recorded as 20; in the assay on corn (250 g ai/ha) it was 30; in the assay on ryegrass, Italian (31 g ai/ha), 10; with ryegrass, Italian (62 g ai/ha), 20; in the assay with ryegrass, Italian (125 g ai/ha), 25; with ryegrass, Italian (250 g ai/ha) it was 30. Moreover, the Plant response rating in the assay on field bindweed (31 g ai/ha) is 50; in the assay with field bindweed (62 g ai/ha) it was 75; with field bindweed (125 g ai/ha), 80; in the assay with field bindweed (250 g ai/ha), 80.
For the molecule `CCOc1nc(-c2ccc(F)cc2)nn1Cc1ccnc(C(F)(F)F)c1` [Compound 8, 4-[[5-ethoxy-3-(4-fluorophenyl)-1H-1,2,4-triazol-1-yl]methyl]-2-(trifluoromethyl)pyridine], the Plant response rating with waterhemp (62 g ai/ha) and in the assay with waterhemp (125 g ai/ha) was 100 in each case.
Regarding `CCc1nc(-c2ccc(C(F)(F)F)cc2)nn1Cc1ccnc(C(F)(F)F)c1` [Compound 1, 4-[[5-ethyl-3-[4-(trifluoromethyl)phenyl]-1H-1,2,4-triazol-1-yl]methyl]-2-(trifluoromethyl)pyridine], the Plant response rating is given as 5 in the assay with corn (16 g ai/ha); 5 in the assay with corn (31 g ai/ha); 5 in the assay on corn (62 g ai/ha); 10 with corn (125 g ai/ha); 10 with corn (250 g ai/ha); 20 in the assay on waterhemp (16 g ai/ha). The Plant response rating in the assay with waterhemp (31 g ai/ha) worked out at 95; in the assay on waterhemp (62 g ai/ha), 95; in the assay with waterhemp (125 g ai/ha), 100; with waterhemp (250 g ai/ha), 100; with ryegrass, Italian (16 g ai/ha), 0; in the assay on ryegrass, Italian (31 g ai/ha), 10. Also, the Plant response rating with ryegrass, Italian (62 g ai/ha) came out at 10; in the assay with ryegrass, Italian (125 g ai/ha), 15; in the assay with ryegrass, Italian (250 g ai/ha), 25; with smartweed [2] (16 g ai/ha) it was 25; in the assay with smartweed [2] (31 g ai/ha) it was 40; in the assay with smartweed [2] (62 g ai/ha), 50. For the same molecule, the Plant response rating in the assay with smartweed [2] (125 g ai/ha) was found to be 60; with smartweed [2] (250 g ai/ha), 80; in the assay on field bindweed (16 g ai/ha) it was 40; with field bindweed (31 g ai/ha) it was 55; with field bindweed (62 g ai/ha), 65; in the assay on field bindweed (125 g ai/ha), 65. Besides, the Plant response rating with field bindweed (250 g ai/ha) is 75; with cocklebur (16 g ai/ha) it was 0; with cocklebur (31 g ai/ha) it was 0; in the assay with cocklebur (62 g ai/ha), 0; in the assay on cocklebur (125 g ai/ha), 10; in the assay on cocklebur (250 g ai/ha), 30. Moreover, the Plant response rating was 60 with poinsettia, wild (16 g ai/ha); 70 in the assay with poinsettia, wild (31 g ai/ha); 75 in the assay with poinsettia, wild (62 g ai/ha); 80 with poinsettia, wild (125 g ai/ha); 90 in the assay on poinsettia, wild (250 g ai/ha); 30 with smartweed [3] (125 g ai/ha). Further, in the assay on smartweed [3] (250 g ai/ha), the Plant response rating is recorded as 80.
Consider `CCOc1nc(-c2ccccc2)nn1Cc1ccnc(C(F)(F)F)c1` [Compound 27], for which the Plant response rating with corn (16 g ai/ha) came to 10; in the assay with corn (31 g ai/ha), 15; with corn (62 g ai/ha), 20; in the assay with corn (125 g ai/ha) it was 25; with waterhemp (16 g ai/ha), 100; in the assay with waterhemp (31 g ai/ha) it was 100. For the same molecule, the Plant response rating with waterhemp (62 g ai/ha) is recorded as 100; in the assay with waterhemp (125 g ai/ha) it was 100; in the assay with ryegrass, Italian (16 g ai/ha), 20; with ryegrass, Italian (31 g ai/ha) it was 30; in the assay on ryegrass, Italian (62 g ai/ha), 30; in the assay with ryegrass, Italian (125 g ai/ha), 40. Moreover, the Plant response rating in the assay on field bindweed (16 g ai/ha) came to 50; in the assay on field bindweed (31 g ai/ha) it was 60; with field bindweed (62 g ai/ha), 70; with field bindweed (125 g ai/ha), 80.
As to `CCCc1nc(-c2ccc(F)cc2)nn1Cc1ccnc(C(F)(F)F)c1` [Compound 6, 4-[[3-(4-fluorophenyl)-5-propyl-1H-1,2,4-triazol-1-yl]methyl]-2-(trifluoromethyl)pyridine], the Plant response rating in the assay on waterhemp (31 g ai/ha) is 80; in the assay with waterhemp (62 g ai/ha), 100; in the assay with waterhemp (125 g ai/ha), 100; with waterhemp (250 g ai/ha) it was 100; in the assay on smartweed [2] (16 g ai/ha), 20; with smartweed [2] (31 g ai/ha), 50. For the same molecule, the Plant response rating in the assay on smartweed [2] (62 g ai/ha) is on record as 60; in the assay with smartweed [2] (125 g ai/ha) it was 95; in the assay with smartweed [2] (250 g ai/ha), 95; in the assay with cocklebur (16 g ai/ha), 0; with cocklebur (31 g ai/ha), 0; in the assay with cocklebur (62 g ai/ha), 0. In the assay on cocklebur (250 g ai/ha), the Plant response rating is listed as 10.
In the case of `Fc1ccc(-c2nc(OCC(F)(F)F)n(Cc3ccnc(C(F)(F)F)c3)n2)cc1` [Compound 30], the Plant response rating is reported as 10 in the assay with corn (31 g ai/ha); 20 in the assay on corn (62 g ai/ha); 20 in the assay on corn (125 g ai/ha); 30 in the assay on corn (250 g ai/ha); 100 in the assay with waterhemp (31 g ai/ha); 100 in the assay with waterhemp (62 g ai/ha). In addition, the Plant response rating is 100 with waterhemp (125 g ai/ha); 100 in the assay with waterhemp (250 g ai/ha); 25 in the assay with ryegrass, Italian (31 g ai/ha); 25 in the assay on ryegrass, Italian (62 g ai/ha); 40 with ryegrass, Italian (125 g ai/ha); 50 with ryegrass, Italian (250 g ai/ha). Further, the Plant response rating in the assay on field bindweed (31 g ai/ha) is reported as 70; in the assay with field bindweed (62 g ai/ha), 70; in the assay on field bindweed (125 g ai/ha) it was 75; in the assay on field bindweed (250 g ai/ha), 70; with horseweed [4] (31 g ai/ha), 100; with horseweed [4] (62 g ai/ha) it was 100. The Plant response rating in the assay on horseweed [4] (125 g ai/ha) and with horseweed [4] (250 g ai/ha) was 100 throughout.

The values above are taken from patent US10681909B2, “Herbicidal triazoles” (FMC Corporation, priority 2014, dated 2020).
